BindingDB's records for doi:10.1021/jm9806300 (Massachusetts General Hospital, 1999)

Molecular target: muscle nicotinic acetylcholine receptor (Mus musculus)
Experiment: The compound was tested for inhibitory potency against Nicotinic acetylcholine receptor in mouse muscle.

For `CCCCCC1(CCO)N=N1` [2-(3-Pentyl-3H-diazirin-3-yl)-ethanol], the IC50 was 33 µM.
